Results published in US8871753B2, “Macrocyclic compounds and their use as kinase inhibitors” (Incyte Corporation, priority 2008, dated 2014).
Where a name gives a salt, the structure may show the parent alone. Read-outs that look alike come from different tables or passages of the source.

Legend:
Type in all cases: biochemical
[1] = target: T1, Recombinant Human Anaplastic Lymphoma Kinase (Homo sapiens, UniProt Q9UM73); assay: ALK HTRF kinase assay; details: for ALK % of inhibition at a concentration of 500 nM or 1 mM: compound at 500 nM or 1 mM, 90 μM ATP; for IC50: Table B1, cells without percent sign
T1 construct: purchased Invitrogen, Carlsbad, Calif
T1 sequence (Q9UM73 19-1620): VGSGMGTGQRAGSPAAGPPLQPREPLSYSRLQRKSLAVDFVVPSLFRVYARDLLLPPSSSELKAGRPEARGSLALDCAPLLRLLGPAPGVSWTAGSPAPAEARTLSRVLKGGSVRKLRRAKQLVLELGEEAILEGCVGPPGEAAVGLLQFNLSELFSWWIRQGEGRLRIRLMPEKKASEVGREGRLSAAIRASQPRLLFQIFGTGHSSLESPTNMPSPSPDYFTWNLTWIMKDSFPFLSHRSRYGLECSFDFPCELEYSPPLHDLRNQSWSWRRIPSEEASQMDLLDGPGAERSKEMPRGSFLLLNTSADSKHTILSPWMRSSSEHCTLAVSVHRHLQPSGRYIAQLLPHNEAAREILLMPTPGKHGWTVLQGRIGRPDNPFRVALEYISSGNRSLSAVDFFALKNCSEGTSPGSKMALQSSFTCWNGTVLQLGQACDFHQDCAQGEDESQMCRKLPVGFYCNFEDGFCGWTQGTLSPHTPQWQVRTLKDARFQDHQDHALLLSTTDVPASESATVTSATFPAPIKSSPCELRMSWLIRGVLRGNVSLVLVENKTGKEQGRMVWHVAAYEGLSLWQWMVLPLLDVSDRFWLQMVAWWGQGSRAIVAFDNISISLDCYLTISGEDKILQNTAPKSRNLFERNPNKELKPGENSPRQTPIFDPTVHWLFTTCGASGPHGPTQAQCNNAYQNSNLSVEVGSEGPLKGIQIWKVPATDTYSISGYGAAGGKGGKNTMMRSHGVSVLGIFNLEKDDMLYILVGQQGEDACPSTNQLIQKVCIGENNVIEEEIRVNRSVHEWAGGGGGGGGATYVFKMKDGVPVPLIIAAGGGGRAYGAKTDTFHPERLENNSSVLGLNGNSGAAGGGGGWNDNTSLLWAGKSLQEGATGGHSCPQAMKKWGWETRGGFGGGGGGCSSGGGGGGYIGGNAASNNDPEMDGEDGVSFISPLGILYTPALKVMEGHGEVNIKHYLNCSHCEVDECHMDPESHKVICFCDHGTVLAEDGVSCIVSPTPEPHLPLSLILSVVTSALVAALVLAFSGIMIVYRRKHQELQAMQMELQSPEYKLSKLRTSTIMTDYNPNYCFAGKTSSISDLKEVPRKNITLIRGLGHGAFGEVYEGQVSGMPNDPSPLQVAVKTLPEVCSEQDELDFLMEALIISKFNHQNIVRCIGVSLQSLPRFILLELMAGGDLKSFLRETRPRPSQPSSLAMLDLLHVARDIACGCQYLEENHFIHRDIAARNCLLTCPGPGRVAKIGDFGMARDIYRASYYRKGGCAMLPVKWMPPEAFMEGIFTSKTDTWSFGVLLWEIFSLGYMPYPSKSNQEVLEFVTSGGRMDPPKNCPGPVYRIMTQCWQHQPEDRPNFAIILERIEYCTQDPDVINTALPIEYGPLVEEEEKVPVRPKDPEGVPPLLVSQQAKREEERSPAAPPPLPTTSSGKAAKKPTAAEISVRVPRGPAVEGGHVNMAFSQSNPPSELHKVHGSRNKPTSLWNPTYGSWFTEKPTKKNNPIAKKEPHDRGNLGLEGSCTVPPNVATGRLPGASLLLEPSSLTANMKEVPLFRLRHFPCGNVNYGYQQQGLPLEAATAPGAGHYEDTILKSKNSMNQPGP
In short: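 Kinase activity of the recombinant human protein is measured on a biotinylated peptide, with a Eu-W1024 anti-phosphotyrosine antibody and streptavidin-allophycocyanin generating the homogeneous time-resolved fluorescence signal. Inhibition curves are fitted to yield IC50.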

[2] = target: T2, human JAK3 (a.a. 781-1124) (Homo sapiens, UniProt P52333); assay: In vitro JAK kinase assay (HTRF, phosphorylation of a biotinylated peptide), JAK3
T2 construct: JAK3 (a.a. 781-1124); His tag (N); made in house; host or cells: insect cells (baculovirus)
T2 sequence (P52333 781-1124): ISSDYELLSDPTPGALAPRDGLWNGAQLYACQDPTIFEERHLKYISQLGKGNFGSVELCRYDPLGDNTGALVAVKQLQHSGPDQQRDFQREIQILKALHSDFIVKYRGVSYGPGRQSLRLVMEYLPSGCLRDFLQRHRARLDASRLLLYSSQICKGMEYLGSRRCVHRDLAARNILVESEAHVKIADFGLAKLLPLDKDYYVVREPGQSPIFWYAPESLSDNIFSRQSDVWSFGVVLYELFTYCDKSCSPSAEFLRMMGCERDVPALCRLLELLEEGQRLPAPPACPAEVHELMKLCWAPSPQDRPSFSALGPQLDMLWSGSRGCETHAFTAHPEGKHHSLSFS
In short: (§1)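 Kinase activity was measured as phosphorylation of a biotinylated peptide, with ATP at 90 μM for JAK1, 30 μM for JAK2 and 3 μM for JAK3. Reactions ran 1 hr at room temperature, were stopped with EDTA plus SA-APC and Eu-Py20, and were read by HTRF after 40 minutes of antibody binding.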

[3] = target: T3, human JAK2 (a.a. 828-1132) (Homo sapiens, UniProt O60674); assay: In vitro JAK kinase assay (HTRF, phosphorylation of a biotinylated peptide), JAK2
T3 construct: JAK2 (a.a. 828-1132); His tag (N); made in house; host or cells: insect cells (baculovirus)
T3 sequence (O60674 828-1132): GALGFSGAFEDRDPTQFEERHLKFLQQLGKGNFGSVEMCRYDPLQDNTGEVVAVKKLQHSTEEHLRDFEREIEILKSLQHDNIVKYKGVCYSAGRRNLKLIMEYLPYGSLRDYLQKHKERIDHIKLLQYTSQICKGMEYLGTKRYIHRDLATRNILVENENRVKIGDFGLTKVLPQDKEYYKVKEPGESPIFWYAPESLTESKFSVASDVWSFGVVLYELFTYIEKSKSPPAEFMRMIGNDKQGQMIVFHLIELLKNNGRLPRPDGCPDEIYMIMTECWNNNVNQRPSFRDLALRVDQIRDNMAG
In short: as §1

[4] = target: T4, human JAK1 (a.a. 837-1142) (Homo sapiens, UniProt P23458); assay: In vitro JAK kinase assay (HTRF, phosphorylation of a biotinylated peptide), JAK1; details: read-out: JAK1 IC50
T4 construct: human JAK1 (a.a. 837-1142); His tag (N); made in house; host or cells: insect cells (baculovirus)
T4 sequence (P23458 849-1154): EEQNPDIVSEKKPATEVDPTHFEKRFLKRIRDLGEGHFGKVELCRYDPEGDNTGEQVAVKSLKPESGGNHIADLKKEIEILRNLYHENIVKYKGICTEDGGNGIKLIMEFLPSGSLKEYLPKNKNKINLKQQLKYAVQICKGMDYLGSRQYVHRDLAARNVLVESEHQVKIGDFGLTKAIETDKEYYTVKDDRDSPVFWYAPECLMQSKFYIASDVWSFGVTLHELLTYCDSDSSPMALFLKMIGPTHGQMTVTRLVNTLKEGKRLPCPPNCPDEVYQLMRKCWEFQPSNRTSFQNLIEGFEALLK
In short: as §1

TYK2 = TYK2 (Homo sapiens, UniProt P29597); assay: TYK2 kinase inhibition (Table A1)
Chain of TYK2 (P29597 whole entry): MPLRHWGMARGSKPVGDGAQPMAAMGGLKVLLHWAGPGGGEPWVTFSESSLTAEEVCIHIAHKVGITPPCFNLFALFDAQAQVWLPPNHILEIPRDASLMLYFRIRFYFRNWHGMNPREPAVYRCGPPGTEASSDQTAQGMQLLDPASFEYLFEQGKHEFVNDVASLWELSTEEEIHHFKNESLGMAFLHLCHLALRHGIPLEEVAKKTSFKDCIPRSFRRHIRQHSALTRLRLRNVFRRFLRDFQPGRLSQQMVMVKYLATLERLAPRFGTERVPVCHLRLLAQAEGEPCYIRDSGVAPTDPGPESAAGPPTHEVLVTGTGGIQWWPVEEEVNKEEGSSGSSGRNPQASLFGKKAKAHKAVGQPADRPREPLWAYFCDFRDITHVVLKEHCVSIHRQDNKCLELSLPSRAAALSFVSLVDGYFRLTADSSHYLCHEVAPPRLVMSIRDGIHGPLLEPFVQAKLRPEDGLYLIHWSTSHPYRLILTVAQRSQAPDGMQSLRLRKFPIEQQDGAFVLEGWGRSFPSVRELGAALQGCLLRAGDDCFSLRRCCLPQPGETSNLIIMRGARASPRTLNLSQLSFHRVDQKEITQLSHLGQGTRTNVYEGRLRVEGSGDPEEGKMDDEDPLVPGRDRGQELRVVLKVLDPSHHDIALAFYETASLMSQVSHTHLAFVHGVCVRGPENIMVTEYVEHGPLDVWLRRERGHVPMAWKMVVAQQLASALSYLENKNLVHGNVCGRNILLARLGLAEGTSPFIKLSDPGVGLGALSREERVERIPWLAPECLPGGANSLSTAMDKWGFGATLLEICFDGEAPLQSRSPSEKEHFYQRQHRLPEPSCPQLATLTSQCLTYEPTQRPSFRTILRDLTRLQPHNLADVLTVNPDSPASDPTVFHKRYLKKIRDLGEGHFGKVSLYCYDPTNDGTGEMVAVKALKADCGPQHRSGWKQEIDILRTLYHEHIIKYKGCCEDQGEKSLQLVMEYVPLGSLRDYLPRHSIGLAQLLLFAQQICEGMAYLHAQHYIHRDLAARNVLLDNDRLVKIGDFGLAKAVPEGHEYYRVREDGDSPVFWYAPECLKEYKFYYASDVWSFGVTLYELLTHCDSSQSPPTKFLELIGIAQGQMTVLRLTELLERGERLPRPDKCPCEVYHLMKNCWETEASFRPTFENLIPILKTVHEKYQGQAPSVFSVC

[5] = method AA1 (3 μM ATP) or AA2 (1000 μM ATP), not stated per value
[6] = method AA1 (30 μM ATP) or AA2 (1000 μM ATP), not stated per value
[7] = method AA1 (90 μM ATP) or AA2 (1000 μM ATP), not stated per value

Row | SMILES | ALK % of inhibition at a concentration of 500 nM or 1 mM [1] [%] | IC50 [2, 5] [µM] | IC50 [3, 6] [µM] | IC50 [4, 7] [µM] | IC50 (TYK2) [µM] | IC50 [1] [µM] | IC50 ([2]; Table B1) [µM] | IC50 ([3]; Table B1) [µM] | IC50 ([4]; Table B1) [µM] | IC50 (TYK2; Table B1) [µM]
1 | Cc1cc(N2CCC(CC(=O)Nc3ccc4cc3CCc3cccc(c3)Nc3ncc(Cl)c(n3)N4)CC2)no1 [Example A248, N-[6-Chloro-2,4,8,22-tetraazatetracyclo[14.3.1.1(3,7).1(9,13)]docosa-1(20),3(22),4,6,9(21),10,12,16,18-nonaen-12-yl]-2-[1-(5-methylisoxazol-3-yl)piperidin-4-yl]acetamide trifluoroacetate] | 50 | > 0.2 | 0.03 | 0.0087 | 0.082 | – | – | – | – | –
2 | O=C(COc1ccc2cc1CCc1cncc(c1)Nc1ncc(Cl)c(n1)N2)N1CCn2c(nnc2C(F)(F)F)C1 [Example A249, 6-Chloro-12-{2-oxo-2-[3-(trifluoromethyl)-5,6-dihydro[1,2,4]triazolo[4,3-a]pyrazin-7(8H)-yl]ethoxy}-2,4,8,18,22pentaazatetracyclo[14.3.1.1(3,7).1(9,13)]docosa1(20),3(22),4,6,9(21),10,12,16,18-nonaene bis(trifluoroacetate)] | 28 | > 0.4 | > 0.4 | 0.226 | > 0.4 | – | – | – | – | –
3 | Cc1cnc2nc1Nc1cccc(c1)/C=C\c1cccc(c1)N2 [Example B1, (14Z)-6-Methyl-2,4,8,22-tetraazatetracyclo[14.3.1.1(3,7).1(9,13)]docosa-1(20),3(22),4,6,9(21),10,12,14,16,18-decaene trifluoroacetate] | – | – | – | – | – | 0.786 | > 0.1 | 0.0051 | 0.011 | 0.017
4 | Cc1cnc2nc1Nc1cccc(c1)CCc1cccc(c1)N2 [Example B2, 6-Methyl-2,4,8,22-tetraazatetracyclo[14.3.1.1(3,7).1(9,13)]docosa-1(20),3(22),4,6,9(21),10,12,16,18-nonaene trifluoroacetate] | – | – | – | – | – | > 1 | 0.277 | 0.0084 | 0.011 | 0.019
5 | Brc1cnc2nc1Nc1cccc(c1)CCc1cccc(c1)N2 [Example B3, 6-Bromo-2,4,8,22-tetraazatetracyclo[14.3.1.1(3,7).1(9,13)]docosa-1(20),3(22),4,6,9(21),10,12,16,18-nonaene trifluoroacetate] | – | – | – | – | – | 0.976 | 0.067 | 0.0035 | 0.0092 | 0.015
6 | COC(=O)c1cc2cc(c1)Nc1nc(ncc1Cl)Nc1cccc(c1)CC2 [Example B5, Methyl 6-chloro-2,4,8,22-tetraazatetracyclo[14.3.1.1(3,7).1(9,13)]docosa-1(20),3(22),4,6,9(21),10,12,16,18-nonaene-11-carboxylate trifluoroacetate] | – | – | – | – | – | > 1 | 0.083 | 0.044 | 0.107 | 0.165
7 | O=C(O)c1cc2cc(c1)Nc1nc(ncc1Cl)Nc1cccc(c1)CC2 [Example B6, 6-Chloro-2,4,8,22-tetraazatetracyclo[14.3.1.1(3,7).1(9,13)]docosa-1(20),3(22),4,6,9(21),10,12,16,18-nonaene-11-carboxylic acid trifluoroacetate] | – | – | – | – | – | > 1 | > 1 | 0.8 | > 1 | > 1
8 | O=C(Nc1ccc(F)c(Cl)c1)c1cc2cc(c1)Nc1nc(ncc1Cl)Nc1cccc(c1)CC2 [Example B7, 6-Chloro-N-(3-chloro-4-fluorophenyl)-2,4,8,22-tetraazatetracyclo[14.3.1.1(3,7).1(9,13)]docosa-1(20),3(22),4,6,9(21),10,12,16,18-nonaene-11-carboxamide trifluoroacetate] | – | – | – | – | – | > 10 | > 1 | 0.7 | > 1 | > 1
9 | CN1CCN(C(=O)c2cc3cc(c2)Nc2nc(ncc2Cl)Nc2cccc(c2)CC3)CC1 [Example B8, 6-Chloro-11-[(4-methylpiperazin-1-yl)carbonyl]-2,4,8,22-tetraazatetracyclo[14.3.1.1(3,7).1(9,13)]docosa-1(20),3(22),4,6,9(21),10,12,16,18-nonaene trifluoroacetate] | – | – | – | – | – | > 1 | > 1 | 0.35 | 0.5 | > 1
10 | O=C(Nc1ccc(N2CCOCC2)cc1)c1cc2cc(c1)Nc1nc(ncc1Cl)Nc1cccc(c1)CC2 [Example B9, 6-Chloro-N-(4-morpholin-4-ylphenyl)-2,4,8,22-tetraazatetracyclo[14.3.1.1(3,7).1(9,13)]docosa-1(20),3(22),4,6,9(21),10,12,16,18-nonaene-11-carboxamide trifluoroacetate] | – | – | – | – | – | > 1 | > 1 | 0.13 | 0.263 | 0.683
11 | O=C(Nc1ccc(CCO)cc1)c1cc2cc(c1)Nc1nc(ncc1Cl)Nc1cccc(c1)CC2 [Example B10, 6-Chloro-N-[4-(2-hydroxyethyl)phenyl]-2,4,8,22-tetraazatetracyclo[14.3.1.1(3,7).1(9,13)]docosa-1(20),3(22),4,6,9(21),10,12,16,18-nonaene-11-carboxamide trifluoroacetate] | – | – | – | – | – | 1.96 | 0.051 | 0.012 | 0.068 | 0.172
12 | O=C(NCc1ccncc1)c1cc2cc(c1)Nc1nc(ncc1Cl)Nc1cccc(c1)CC2 [Example B11, 6-Chloro-N-(pyridin-4-ylmethyl)-2,4,8,22-tetraazatetracyclo[14.3.1.1(3,7).1(9,13)]docosa-1(20),3(22),4,6,9(21),10,12,16,18-nonaene-11-carboxamide bis(trifluoroacetate)] | – | – | – | – | – | 2.37 | 0.144 | 0.092 | 0.097 | 0.275
13 | O=C(c1cc2cc(c1)Nc1nc(ncc1Cl)Nc1cccc(c1)CC2)N1CCCC(O)C1 (stereo not drawn) [Example B12, 1-{[6-Chloro-2,4,8,22-tetraazatetracyclo[14.3.1.1(3,7).1(9,13)]docosa-1(20), 3(22),4,6,9(21),10,12,16,18-nonaen-11-yl]carbonyl}piperidin-3-ol trifluoroacetate] | – | – | – | – | – | > 10 | 0.45 | 0.112 | 0.235 | 0.312
14 | O=C(Nc1cccc(Cl)c1)c1cc2cc(c1)Nc1nc(ncc1Cl)Nc1cccc(c1)CC2 [Example B13, 6-Chloro-N-(3-chlorophenyl)-2,4,8,22-tetraazatetracyclo[14.3.1.1(3,7).1(9,13)]docosa-1(20),3(22),4,6,9(21),10,12,16,18-nonaene-11-carboxamide trifluoroacetate] | – | – | – | – | – | > 1 | 0.682 | 0.171 | 0.9 | > 1
15 | O=C(Nc1ccccc1Cl)c1cc2cc(c1)Nc1nc(ncc1Cl)Nc1cccc(c1)CC2 [Example B14, 6-Chloro-N-(2-chlorophenyl)-2,4,8,22-tetraazatetracyclo[14.3.1.1(3,7).1(9,13)]docosa-1(20),3(22),4,6,9(21),10,12,16,18-nonaene-11-carboxamide trifluoroacetate] | – | – | – | – | – | > 1 | 0.314 | 0.119 | 0.232 | > 1
